# From patent US4833138A, “Phenothiazinealkaneamines for treatment of neurotoxic injury” (priority 1987, dated 1989)
# Counter-ions that a name gives are not always drawn.
# How the values were obtained:
# [1] = system: NMDA receptor (N-Methyl-Aspartate excitation of central mammalian neurones); conditions: Anis et al, Br. J. Pharmacol. 1983; cited from earlier work
# NMA neurotoxicity = conditions: Olney et al, Neuroscience Letters 1986 for PCP and ketamine; competitive NMA antagonist statement without reference; cited from earlier work
# [2] = system: NMA neurotoxicity in chick embryo retina; assay: NMDA/KA Antagonist Assay, chick embryo retina, NMA (200 μM) neurotoxicity; type: cell-based; conditions: 15-day old chick embryo retina, 30 min at 37° C., n>6
# Experimental: (§1) Two agonists were employed in the present test, each at a concentration established previously to be the lowest concentration required to consistently cause a fully-developed retinal lesion: KA (25 μM) and NMA (200 μM). […] Internal controls in each experiment consisted of at least six specimens being incubated with agonist alone. […] The method of tissue preparation was as follows: 15-day old chick embryos were decapitated and their eyes removed and cut into quadrants after excising the cornea and removing the lens, vitreous and iris. The retinal quadrants were then gently separated from the pigment epithelium and incubated for 30 min. at 37° C. in BSS to which an agonist or agonist plus antagonist was added. The BSS contained 140 mM Na^+, 5.0 mM K^+, 0.5 mM Ca^++, 4 5mM Mg^++, 150 mM Cl^-, 5.6 mM glucose and bicarbonate/phosphate buffer (pH 7.3). After incubation for 30 min., the retinal quadrants were fixed by immersion in phosphatebuffered solution containing 1.5% glutaraldehyde and 1% paraformaldehyde, then additionally fixed in 1% osmium tetroxide, dehydrated in graded ethanols, cleared in toluene and embedded in araldite. Sections were cut 1 μM thick on a Sorval ultratome and stained with Methylene blue/Azure 11 for histopathological evaluation by light microscopy.
# [3] = system: KA neurotoxicity in chick embryo retina; assay: NMDA/KA Antagonist Assay, chick embryo retina, KA (25 μM) neurotoxicity; type: cell-based; conditions: 15-day old chick embryo retina, 30 min at 37° C.
# Experimental: as §1
# [4] = system: N-Methylaspartate excitation of spinal neurones; conditions: Berry et al, Eur. J. Pharm. 1983; binding and behavioral data; cited from earlier work
# [5] = system: [^3 H]PCP binding sites, rat cerebral cortical membranes; conditions: Goldman et al, FEBS Lett. 1985; cited from earlier work
# chick embryo retina [6] = assay: Acute excitotoxic lesion of chick embryo retina by agonist alone; conditions: 1 mM Glu, 30 min in BSS
# Experimental: as §1
# chick embryo retina [7] = conditions: chicken, 30 min
# Experimental: as §1
# [8] = system: N-methyl-D-aspartate receptor; conditions: Wong et al, PNAS 1986; cited from earlier work
compound,measurement,setting,value
c1ccc(C2(N3CCCCC3)CCCCC2)cc1 [PCP],reduction of excitatory effects of NMDA as compared to KA and QUIS,[1],reduce selectively the excitatory effects of NMDA as compared to KA and QUIS
same,blocking of NMA neurotoxicity,NMA neurotoxicity,Blocking of NMA neurotoxicity
10-[2-(diethylamino)ethyl]phenothiazine [ethopropazine],concentration providing total protection against toxicity of NMA,[2],25.0 µM
same,blocking of KA toxicity,[3],not observed
"CC1CCCN(C2(c3ccccc3)CCCCC2)C1 (single isomer, unassigned; (+)) [(+)-PCMP, (+)-1-(1-phenylcyclohexyl)-3-methylpiperidine]",stereoselective effect over isomer counterpart in reducing the excitatory action of NMDA,[4],stereoselective effects
same,inhibition of the specific binding of [^3 H]PCP,[5],potent inhibitor
"N[C@@H](CCC(=O)O)C(=O)O [Glu, Glutamate]",retinal lesion,chick embryo retina [6],full lesion
"CN[C@H](CC(=O)O)C(=O)O [NMA, N-methyl-D-aspartate]",lowest concentration required to consistently cause a fully-developed retinal lesion,chick embryo retina [7],200 µM
CNC1(c2ccccc2Cl)CCCCC1=O (stereo not drawn) [ketamine],reduction of excitatory effects of NMDA as compared to KA and QUIS,[1],reduce selectively the excitatory effects of NMDA as compared to KA and QUIS
same,blocking of NMA neurotoxicity,NMA neurotoxicity,Blocking of NMA neurotoxicity
"C[C@]12N[C@H](Cc3ccccc31)c1ccccc12 [MK-801, (+)-5-methyl-10,11-dihydro-5H-dibenzo[a,d]cyclohepten-5,10-imine maleate)]",antagonism of the N-methyl-D-aspartate receptor site,[8],"potent, selective non-competitive antagonist"
CC1CCC(c2ccccc2)(N2CCCCC2)CC1 (stereo not drawn) [cis-N-(1-phenyl-4-methylcyclohexyl)piperidine],stereoselective effect over isomer counterpart in reducing the excitatory action of NMDA,[4],stereoselective effects
